Source: patent US20190053492A1, “SUBSTITUTED PYRIDINE COMPOUNDS AS PESTICIDES” (Bayer CropScience Aktiengesellschaft, priority 2016, published 2019)
Read-outs that look alike come from different tables or passages of the source.

Tests used:
[1] = log P by HPLC on reversed-phase column (C 18), EEC Directive 79/831 Annex V.A8; format: physicochemical; conditions: 55° C.; for LOGP_HCOOH: log P (HCOOH); for chromatographic logP: reversed-phase HPLC column (C 18)
Protocol: Temperature: 55° C. […] Called log P (HCOOH) in the table. […] Called log P (neutral) in the table.

[2] = tested on: Phaedon cochleariae; assay: Phaedon cochleariae spray test; format: in vivo; conditions: after 7 days, Chinese cabbage leaf discs
Outline: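 Chinese cabbage leaf discs sprayed with compound in acetone/DMF and emulsifier-containing water, then infested with mustard beetle larvae once dry. Efficacy in % scored after 7 days (100% = all larvae killed, 0% = none).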

[3] = tested on: Spodoptera frugiperda; assay: Spodoptera frugiperda spray test; format: in vivo; conditions: after 7 days, maize leaf discs
Outline: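 Maize leaf discs were sprayed with compound formulated in acetone/DMF and emulsifier-containing water, dried, then infested with Spodoptera frugiperda caterpillars. Percent kill was scored after 7 days, from 100% (all dead) to 0% (none dead).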

[4] = tested on: Tetranychus urticae; assay: Tetranychus urticae spray test, OP-resistant; format: in vivo; conditions: after 6 days, bean leaf discs
Protocol: Tetranychus urticae—Spray Test, OP-Resistant
Solvent: 78.0 parts by weight of acetone • • 1.5 parts by weight of dimethylformamide
Emulsifier: alkylaryl polyglycol ether
To produce a suitable active ingredient formulation, 1 part by weight of active ingredient is dissolved with the specified parts by weight of solvent and made up with water containing an emulsifier concentration of 1000 ppm until the desired concentration is attained. To produce further test concentrations, the formulation is diluted with emulsifier-containing water.
Discs of bean leaves (Phaseolus vulgaris) infested with all stages of the greenhouse red spider mite (Tetranychus urticae) are sprayed with an active ingredient formulation of the desired concentration.
After 6 days, the efficacy in % is determined. 100% means that all the spider mites have been killed; 0% means that no spider mites have been killed.

[5] = tested on: Ctenocephalides felis; assay: Ctenocephalides felis oral test; format: in vivo; conditions: application rate 100 ppm in citrated cattle blood, after 2 days, adult cat fleas; for pest or weed control at 100 ppm: Ctenocephalides felis, po, 48 h, read-out: efficacy (kill in %)
Outline: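 About 20 unfed adult cat fleas fed through a parafilm membrane on citrated cattle blood dosed with compound from a DMSO formulation. Percent kill was scored after 2 days.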

[6] = tested on: Lucilia cuprina; assay: Lucilia cuprina test; format: in vivo; conditions: application rate 100 ppm, after 2 days, L1 larvae
Outline: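 Active ingredient dissolved in DMSO and diluted with water to the test concentration. About 20 first-instar sheep blowfly larvae placed on minced horsemeat containing the formulation; percentage of larvae killed scored after 2 days.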

[7] = tested on: Musca domestica; assay: Musca domestica test; format: in vivo; conditions: after 2 days, adult houseflies
Protocol: Musca domestica Test Solvent: dimethyl sulphoxide To produce a suitable active ingredient formulation, 10 mg of active ingredient are mixed with 0.5 ml of dimethyl sulphoxide, and the concentrate is diluted with water to the desired concentration. Vessels containing a sponge treated with sugar solution and the active ingredient formulation of the desired concentration are populated with 10 adult houseflies (Musca domestica). After 2 days, the kill in % is determined. 100% means that all of the flies have been killed; 0% means that none of the flies have been killed.

[8] = acidic range at pH 2.7, 0.1% aqueous formic acid and acetonitrile, HPLC on reversed-phase column (C 18)
[9] = log P, neutral range, HPLC on reversed-phase column (C 18)
[10] = Spodoptera frugiperda, foliar, 168 h, application rate 500 g/ha, read-out: efficacy (caterpillars killed)
[11] = acidic range pH 2.7, 0.1% aqueous formic acid and acetonitrile, reversed-phase column (C 18)

Structure (SMILES)	LOGP_HCOOH [1, 8]	LOGP_NEUTRAL [1, 9]	efficacy (beetle larvae killed) ([2]; application rate 100 g/ha) [%]	efficacy (beetle larvae killed) ([2]; application rate 500 g/ha) [%]	efficacy (caterpillars killed) ([3]; application rate 100 g/ha) [%]	efficacy (caterpillars killed) ([3]; application rate 500 g/ha) [%]	efficacy (spider mites killed) ([4]; application rate 500 g/ha) [%]	efficacy (kill in %) [5] [%]	efficacy (kill in %) [6] [%]	efficacy (kill in %) ([7]; application rate 100 ppm) [%]	other results
CC(NC(=O)c1cc(-c2ccc(OC(F)(F)F)cc2)cc(NC(=O)C2CC2)n1)c1ccc(C#N)cc1 (single isomer, unassigned) [Example I-218]	4.17	4.02	100	100	100	100	90				efficacy (spider mites killed) ([4]; application rate 100 g/ha): 90%
CN(C(=O)c1cc(-c2ccc(C(F)(F)F)cc2)cc(NC(=O)C2CC2)n1)C1CC1 [Example I-036, N-Cyclopropyl-6-[(cyclopropylcarbonyl)amino]-N-methyl-4-[4-(trifluoromethyl)phenyl]pyridine-2-carboxamide]		3.21					90				chromatographic logP ([1]; pH 2.7, log P (HCOOH), acidic range pH 2.7, 0.1% aqueous formic acid and acetonitrile, reversed-phase column (C 18), read-out: LOGP_HCOOH): 3.3; chromatographic logP ([1]; pH 7.8, LC-MS neutral range, pH 7.8, ammonium hydrogencarbonate/acetonitrile, read-out: log P (neutral)): 3.21; pest or weed control at 100 ppm [5]: 100%; pest or weed control at 500 g/ha [3, 10]: 83%
Cn1ccc(-c2ccc(CNC(=O)c3cc(-c4ccc(OC(F)(F)F)cc4)cc(NC(=O)C4CC4)n3)cc2)n1 [Example I-100]		3.75				83					LOGP_HCOOH [1, 11]: 3.86; efficacy (spider mites killed) ([4]; application rate 100 g/ha): 90%
COC(=O)c1ccc(CNC(=O)c2cc(-c3ccc(OC(F)(F)F)cc3)cc(NC(=O)C3CC3)n2)cc1 [Example I-101]		3.97		83			90				LOGP_HCOOH [1, 11]: 4.08
CC(C#N)NC(=O)c1cc(-c2ccc(OC(F)(F)F)cc2)cc(NC(=O)C2CC2)n1 (centres unmarked) [Example I-115]	3.46	3.40	100	100	100	100		100	90	80	
N#Cc1ccc(CNC(=O)c2cc(-c3cc(F)c(OC(F)(F)F)c(F)c3)cc(NC(=O)C3CC3)n2)cc1 [Example I-152]	4.14	4.05	100	100	100	100		100	90	90	
N#Cc1ccc(CNC(=O)c2cc(-c3ccc4c(c3)OC(F)(F)O4)cc(NC(=O)C3CC3)n2)cc1 [Example I-154]	3.76	3.61	100	100	83	100		100	100	100	
N#Cc1ccc(CNC(=O)c2cc(-c3cc(F)c(OC(F)F)c(F)c3)cc(NC(=O)C3CC3)n2)cc1 [Example I-155]	3.46	3.40		83	100	100		100	100	100	
N#Cc1ccc(CNC(=O)c2cc(-c3ccc(C(F)(F)F)s3)cc(NC(=O)C3CC3)n2)cc1 [Example I-160, N-(4-Cyanobenzyl)-6-[(cyclopropylcarbonyl)amino]-4-[5-(trifluoromethyl)-2-thienyl]pyridine-2-carboxamide]									100	80	chromatographic logP ([1]; pH 2.7, LC-MS acidic range, pH 2.7, 0.1% formic acid/acetonitrile, read-out: log P (acidic) / log P (HCOOH)): 3.73; chromatographic logP ([1]; pH 2.7, log P (HCOOH), acidic range at pH 2.7, 0.1% aqueous formic acid and acetonitrile, HPLC on reversed-phase column (C 18), read-out: LOGP_HCOOH): 3.68; pest or weed control at 100 ppm [5]: 100%; pest or weed control at 100 g/ha ([2]; Phaedon cochleariae, foliar, 168 h, application rate 100 g/ha, read-out: efficacy (beetle larvae killed)): 100%; pest or weed control at 500 g/ha ([2]; Phaedon cochleariae, foliar, 168 h, application rate 500 g/ha, read-out: efficacy (beetle larvae killed)): 100%; pest or weed control at 100 g/ha ([3]; Spodoptera frugiperda, foliar, 168 h, application rate 100 g/ha, read-out: efficacy (caterpillars killed)): 100%; pest or weed control at 500 g/ha [3, 10]: 100%
N#Cc1ccc(CNC(=O)c2cc(-c3ccc4c(c3)OC(F)(F)C(F)(F)O4)cc(NC(=O)C3CC3)n2)cc1 [Example I-172]	4.27	4.57		100	100	100		100	100	100	
O=C(NC1(C2CC2)CC1)c1cc(-c2ccc(OC(F)(F)F)cc2)cc(NC(=O)C2CC2)n1 [Example I-184]	4.23		100	100		100		100	100		efficacy (kill in %) ([7]; application rate 20 ppm): 100%
N#CC1CCC(CNC(=O)c2cc(-c3ccc(C(F)(F)C(F)(F)F)c(F)c3)cc(NC(=O)C3CC3)n2)CC1 (centres unmarked) [Example I-185]	4.29	4.14	100	100	100	100	90				
N#Cc1ccc(CNC(=O)c2cc(-c3ccc(OC(F)(F)C(F)Cl)cc3)cc(NC(=O)C3CC3)n2)cc1 (centres unmarked) [Example I-194]	3.81	3.74		83			90				efficacy (spider mites killed) ([4]; application rate 100 g/ha): 90%
N#CC1CCC(CNC(=O)c2cc(-c3ccc(C(F)(F)C(F)(F)F)cc3)cc(NC(=O)C3CC3)n2)CC1 (centres unmarked) [Example I-195]	4.22	4.08	100	100	100	100		100	100	100	efficacy (kill in %) ([7]; application rate 20 ppm): 100%
O=C(NCc1ccc([N+](=O)[O-])cc1)c1cc(-c2ccc(C(F)(F)C(F)(F)F)cc2)cc(NC(=O)C2CC2)n1 [Example I-196]	4.37	4.30	100	100	100	100		100	100	80	
O=C(NCc1ccccc1)c1cc(-c2ccc(OC(F)(F)F)cc2)cc(NC(=O)C2CC2)n1 [Example I-227]	4.23			100		100	90				efficacy (spider mites killed) ([4]; application rate 100 g/ha): 90%
N#Cc1ccc(CNC(=O)c2cc(-c3ccc(OC(F)(F)F)cc3)cc(NC(=O)C3CC3)n2)s1 [Example I-255]					83	100	90				LOGP_HCOOH [1, 11]: 3.90; LOGP_NEUTRAL ([1]; log P (neutral), HPLC reversed-phase column (C 18)): 3.88
